Patent US20230192705A1, “SHP2 INHIBITORS, COMPOSITIONS AND USES THEREOF” (Betta Pharmaceuticals Co., Ltd, priority 2020, published 2023)

Key:
[1] = target: T1, SHP2 (Homo sapiens, UniProt Q06124); experiment: SHP2 allosteric inhibitor enzyme activity assay (DiFMUP fluorescence); assay type: biochemical
T1 sequence (Q06124 1-593): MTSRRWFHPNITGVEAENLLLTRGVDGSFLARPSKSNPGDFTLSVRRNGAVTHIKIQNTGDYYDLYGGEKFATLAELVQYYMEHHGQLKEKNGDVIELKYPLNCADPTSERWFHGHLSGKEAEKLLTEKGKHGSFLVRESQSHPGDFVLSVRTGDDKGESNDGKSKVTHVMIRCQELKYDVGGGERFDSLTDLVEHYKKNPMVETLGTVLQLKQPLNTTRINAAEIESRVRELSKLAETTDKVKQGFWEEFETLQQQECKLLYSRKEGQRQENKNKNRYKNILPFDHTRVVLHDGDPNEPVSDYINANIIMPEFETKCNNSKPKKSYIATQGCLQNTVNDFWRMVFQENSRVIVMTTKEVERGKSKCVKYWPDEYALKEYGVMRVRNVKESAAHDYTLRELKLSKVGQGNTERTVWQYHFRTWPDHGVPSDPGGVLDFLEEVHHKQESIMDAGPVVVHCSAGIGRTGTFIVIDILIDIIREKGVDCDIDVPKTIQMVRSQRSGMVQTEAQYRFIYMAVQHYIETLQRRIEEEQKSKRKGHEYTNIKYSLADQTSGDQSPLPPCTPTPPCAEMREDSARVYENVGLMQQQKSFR
Summary of the method: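 SHP2 activated by 0.5 μM IRS1_pY1172(dPEG8)pY1222 peptide, 0.2 ng enzyme per well, 1 h at room temperature with compound (1 μM top, 3-fold series), then DiFMUP substrate 1 h. Buffer: 60 mM HEPES, 75 mM NaCl, 75 mM KCl, 0.05% BRIJ-35, 1 mM EDTA, 5 mM DTT. Fluorescence ex 340/em 450 nm; IC50 by variable-slope fit.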

[2] = In vitro metabolic stability in human liver microsome; assay type: in vitro ADME; conditions: human liver microsomes
Method: 1900 mg MgCl2 was dissolved into a final volume of 400 mL ultra-pure water.
17.42 g K2HPO4 and 13.65 g KH2PO4 were dissolved into a final volume of 1000 mL ultra-pure water, respectively. K2HPO4 and KH2PO4 were mixed to prepare 100 mM potassium phosphate (PBS) buffer. The pH value of the final solution was adjusted to pH 7.30±0.10.
Cold ACN (including 10 ng/mL Labetalol and 10 ng/mL Glibenclamid) was stored at 4° C.
Working Solution Preparation:
Verapamil (positive control) and test compound stock solution were diluted into a concentration of 50 μM and 200 μM respectively, using MeOH/ACN/H2O solution (1:1:2, v/v/v).
1) 40 μL MgCl2 and 306 μL PBS were added to 96 plate wells (blank, compound wells, compounds without NADPH wells)
2) 4 μL compound working solution was added to above wells (blank: 4 μL PBS buffer) (Note: the volume of DMSO in final incubation system ≤0.5%)
3) 10 μL microsomes (20 mg/mL) was added in each well. The mixture was warmed up for 10 minutes at 37.0° C.
4) 40 μL 10 mM NADPH working solution was added to start reaction. The total volume was 400 μL.
5) Aliquots of 50 μL samples were taken from the reaction solution at 0, 5, 15, 45 min. The reaction solutions were stopped by the addition of 400 μL stop solution.
6) The sampling plates were shaked for approx. 5 min.
7) Samples were centrifuged at 3200 rcf for 10 min. then transferred 50 μL to a new plate dilute with 200 μL H2O for LC/MS/MS analysis.
Use equation of first order kinetics to calculate t1/2 and CL: […]
Where k represents elimination constant, which is calculated from a log linear plot of % Remaining versus time. t1/2 represents the half-life. Cprotein is the concentration of liver microsomes.

Row | SMILES | IC50 ([1]; class symbols) [nM] | CLint Human [2] [μL/min/mg proteins] | IC50 ([1]; numeric values) [nM]
1 | Cn1c(N2CCC3(CC2)Cc2ccccc2[C@H]3N)nc2[nH]nc(C3(c4ccccc4)CC3)c2c1=O [Example 1] | ≤ 20 | 95.2 | –
2 | N[C@@H]1c2ccccc2CC12CCN(c1nc3[nH]nc(C4(c5cccc(F)c5)CC4)c3c(=O)[nH]1)CC2 [Example 6, (S)-6-(1-amino-1,3-dihydrospiro[indene-2,4′-piperidin]-1′-yl)-3-(1-(3-fluorophenyl)cyclopropyl)-1,5-dihydro-4H-pyrazolo[3,4-d]pyrimidin-4-one] | – | 19.5 | 0.62
3 | N[C@@H]1c2ccccc2CC12CCN(c1nc3[nH]nc(C4(c5cccc(C(F)(F)F)c5)CC4)c3c(=O)[nH]1)CC2 [Example 8, (S)-6-(1-amino-1,3-dihydrospiro[indene-2,4′-piperidin]-1′-yl)-3-(1-(3-(trifluoromethyl)plienyl)cyclo-propyl)-1,5-dihydro-4H-pyrazolo[3,4-d]pyrimidin-4-one] | – | 9.2 | 2.2
4 | N[C@@H]1c2ccccc2CC12CCN(c1nc3[nH]nc(C4(c5ccccc5)CC4(F)F)c3c(=O)[nH]1)CC2 (stereo partly drawn) [Example 9, 6-((S)-1-amino-1,3-dihydrospiro[indene-2,4′-piperidin]-1′-yl)-3-(2,2-difluoro-1-phenylcyclopropyl)-1,5-dihydro-4H-pyrazolo[3,4-d]pyrimidin-4-one] | ≤ 20 | 16.9 | –
5 | N[C@@H]1c2ccccc2CC12CCN(c1nc3[nH]nc(C4(c5ccc(F)cc5)CC4)c3c(=O)[nH]1)CC2 [Example 11, (S)-6-(1-amino-1,3-dihydrospiro[indene-2,4′-piperidin]-1′-yl)-3-(1-(4-fluorophenyl)cyclopropyl)-1,5-dihydro-4H-pyrazolo[3,4-d]pyrimidin-4-one] | ≤ 20 | 8.6 | –
6 | N[C@@H]1c2ccccc2CC12CCN(c1nc3[nH]nc(C4(c5ccc6c(c5)OC(F)(F)O6)CC4)c3c(=O)[nH]1)CC2 [Example 13, (S)-6-(1-amino-1,3-dihydrospiro[indene-2,4′-piperidin]-1′-yl)-3-(1-(2,2-difluorobenzo[d][1,3]dioxol-5-yl)cyclopropyl)-1,5-dihydro-4H-pyrazolo[3,4-d]pyrimidin-4-one] | ≤ 20 | 9.8 | –
7 | N[C@@H]1c2ccccc2CC12CCN(c1nc3[nH]nc(C4(c5ccc(Cl)c(Cl)c5)CC4)c3c(=O)[nH]1)CC2 [Example 21, (S)-6-(1-amino-1,3-dihydrospiro[indene-2,4′-piperidin]-1′-yl)-3-(1-(3,4-dichlorophenyl)cyclopropyl)-1,5-dihydro-4H-pyrazolo[3,4-d]pyrimidin-4-one] | ≤ 20 | 10.4 | –
8 | N[C@@H]1c2ccccc2CC12CCN(c1nc3[nH]nc(C4(c5cccs5)CC4)c3c(=O)[nH]1)CC2 [Example 24, (S)-6-(1-amino-1,3-dihydrospiro[indene-2,4′-piperidin]-1′-yl)-3-(1-(thiophen-2-yl)cyclopropyl)-1,5-dihydro-4H-pyrazolo[3,4-d]pyrimidin-4-one] | – | – | 1.6
9 | N[C@@H]1c2ccccc2CC12CCN(c1nc3[nH]nc(C4(c5ccccc5)CC4)c3c(=O)[nH]1)CC2 [Example 33] | – | 10.6 | 0.9
10 | N[C@@H]1c2ccccc2CC12CCN(c1nc3[nH]nc(C4(c5ccc6c(c5)OCO6)CC4)c3c(=O)[nH]1)CC2 [Example 34, (S)-6-(1-amino-1,3-dihydrospiro[indene-2,4′-piperidin]-1′-yl)-3-(1-(benzo[d][1,3]dioxol-5-yl)cyclopropyl)-1,5-dihydro-4H-pyrazolo[3,4-d]pyrimidin-4-one] | – | 16.5 | 2.7
11 | N[C@@H]1c2ccccc2CC12CCN(c1nc3[nH]nc(C4(c5ccccc5)COC4)c3c(=O)[nH]1)CC2 [Example 96, (S)-6-(1-amino-1,3-dihydrospiro[indene-2,4′-piperidin]-1′-yl)-3-(3-phenyloxetan-3-yl)-1,5-dihydro-4H-pyrazolo[3,4-d]pyrimidin-4-one] | ≤ 20 | – | –
12 | N[C@@H]1c2ccccc2CC12CCN(c1nc3[nH]nc(C4(c5ccc(C(F)(F)F)cc5)CC4)c3c(=O)[nH]1)CC2 [Example 228, (S)-6-(1-amino-1,3-dihydrospiro[indene-2,4′-piperidin]-1′-yl)-3-(1-(4-(trifluoromethyl)phenyl)cyclo-propyl)-1,5-dihydro-4H-pyrazolo[3,4-d]pyrimidin-4-one] | ≤ 20 | 6.2 | –
13 | Nc1ccc(C2(c3n[nH]c4nc(N5CCC6(CC5)Cc5ccccc5[C@H]6N)[nH]c(=O)c34)CC2)cc1 [Example 230, (S)-6-(1-amino-1,3-dihydrospiro[indene-2,4′-piperidin]-1′-yl)-3-(1-(4-aminophenyl)cyclopropyl)-1,5-dihydro-4H-pyrazolo[3,4-d]pyrimidin-4-one] | ≤ 20 | 9.2 | –
14 | N[C@@H]1c2ccccc2CC12CCN(c1nc3[nH]nc(C4(c5ccc(O)cc5)CC4)c3c(=O)[nH]1)CC2 [Example 234, (S)-6-(1-amino-1,3-dihydrospiro[indene-2,4′-piperidin]-1′-yl)-3-(1-(4-hydroxyphenyl)cyclopropyl)-1,5-dihydro-4H-pyrazolo[3,4-d]pyrimidin-4-one] | ≤ 20 | 10.4 | –
15 | N#Cc1ccc(C2(c3n[nH]c4nc(N5CCC6(CC5)Cc5ccccc5[C@H]6N)[nH]c(=O)c34)CC2)cc1 [Example 237, (S)-4-(1-(6-(1-amino-1,3-dihydrospiro[indene-2,4′-piperidin]-1′-yl)-4-oxo-4,5-dihydro-1H-pyrazolo[3,4-d]pyrimidin-3-yl)cyclopropyl)benzonitrile] | ≤ 20 | – | –
16 | N[C@@H]1c2ccccc2CC12CCN(c1nc3[nH]nc(C4(c5csnn5)CC4)c3c(=O)[nH]1)CC2 [Example 240, (S)-3-(1-(1,2,3-thiadiazol-4-yl)cyclopropyl)-6-(1-amino-1,3-dihydrospiro[indene-2,4′-piperidin]-1′-yl)-1,5-dihydro-4H-pyrazolo[3,4-d]pyrimidin-4-one] | ≤ 20 | 11.8 | –
